Laboratory results published in article PMC5664379 (2017).

Test system: G4 DNA [(CG3)2CGC(AG3)2G] (DNA, G4) CGGGCGGGCGCAGGGAGGGG
Experiment: UV-vis mole-ratio titration, global fit
Settings: buffer pH 7.1, 25 °C; intrinsic, two equivalent anticooperative sites, ω 0.43; stepwise fit equally good: 7.07, 5.79

lg K1-2: 6.79
Compound: C[n+]1ccc(-c2c3nc(c(-c4cc[n+](C)cc4)c4ccc([nH]4)c(-c4cc[n+](C)cc4)c4nc(c(-c5cc[n+](C)cc5)c5ccc2[nH]5)C=C4)C=C3)cc1
